According to patent US12150777B2, “Treatment of depression” (The Board of Trustees of the Leland Stanford Junior …, priority 2018, dated 2024):
Where two headings read alike, the source gives them in different places.

Columns and labels:
[1] = EMBARC randomized trial, sertraline versus placebo, HAMD17 outcome; type: in vivo, human; details: all patients
Description: Assessments and treatment protocol: The primary clinical outcome was total scores on the Hamilton Rating Scale for Depression 17-item (HAMD17)^24,25, administered at each study visit (baseline, week 1, week 2, week 3, week 4, week 6, and week 8).
Key eligibility for the study included being 18-65 years old, having major depression as a primary diagnosis by the Structured Clinical Interview for DSM-IV Axis I Disorders^1, at least moderate depression severity with a score≥14 on the Quick Inventory of Depressive Symptomatology-Self Report (QIDS-SR) at screening and randomization, a major depressive episode beginning before age 30, either a chronic recurrent episode (duration≥2 years) or recurrent MDD (at least 2 lifetime episodes), and no antidepressant failure during the current episode. […] In addition, 40 healthy individuals who were medically and psychiatrically healthy, were recruited across the four sites, and assessed in a similar manner as the patients. […]

[2] = for endpoint symptom difference Cohen's d / remission NNT: below median iI-cI activation
Description: fMRI task and acquisition parameters: The emotional conflict task is a well-characterized paradigm^17,18, that induces emotional conflict through pairing fearful and happy faces with overlaid congruent or incongruent emotion words (participants identify facial expression using a keypad).
fMRI preprocessing and first-level modeling: For the emotional conflict task, the contrasts of interest were incongruent versus congruent trials (conflict) and post-incongruent incongruent trials versus post-congruent incongruent trials (an established measure of conflict regulation)^11,13,17,18.
Statistical analyses: All moderation analyses were conducted under an intention-to-treat framework, incorporating all randomized patients after removing those with excessive head motion or low task accuracy. As such, we employed linear mixed models both for the voxelwise neuroimaging data, as well as follow-up analyses on extracted brain signals, while fully controlling for any potential differences due to site of acquisition. Whole-brain voxelwise correction for multiple comparisons was performed at p<0.05 based on the false discovery rate.
Emotional conflict task: This well-characterized paradigm assesses both emotional conflict and emotional conflict regulation^3,4. Each trial involved presentation of an emotional face with either a fearful or happy expression, drawn from the set of Ekman & Friesen^5, with an overlaid emotion word (“FEAR” or “HAPPY”). Participants were instructed to identify the facial emotion with a key press, while trying to ignore the emotion word. The task consisted of 148 trials, with stimuli presented for 1000 milliseconds (ms) in a fast event-related design. Interstimulus intervals were 3000-5000 ms in a pseudo-randomized order counterbalanced for facial expression, gender, word, and response button. Stimuli were either congruent (e.g. fearful face with “FEAR”) or incongruent (e.g. fearful face with “HAPPY”), and stimuli were furthermore balanced to achieve an equal fraction of current and prior trial congruency, while ensuring no direct stimulus repetitions. Prior to performance of the task during neuroimaging, all participants underwent a practice version to ensure task proficiency was reached (minimum 80% accuracy) and the task instructions were understood. The neuroimaging task lasted 13 minutes and 14 seconds.
We constrained analyses to a search space defined by a whole-brain mask constructed from: a) a 30% probabilistic voxelwise threshold derived from spatially normalized, segmented binary gray matter images from an independent sample of healthy comparison participants^9,10; and b) a conjunction map of adequate signal coverage across study scanners constructed by concatenating the binarized individual-level average map of all task experimental conditions within participants acquired at each scanner, thresholding at a minimum of 50% coverage within each scanner sample, and then conjoining these maps across all scanners. Thus, the final search space was a function of both adequate signal coverage across all study scanners as well as a probabilistic assignment to the brain's gray matter. At each voxel within this search space, the moderating effect of baseline brain activation (mean-centered) was examined using a longitudinal linear mixed model implemented in the nlme R package.^14 Modeled effects included a random and fixed intercept, fixed effects of time, time×treatment arm, 4 mean-centered, dummy-coded scanner variables corresponding to: a) Columbia University scanner 1 vs. UT Southwestern scanner; b) Columbia University scanner 2 vs. UT Southwestern scanner; c) Massachusetts General Hospital scanner vs. UT Southwestern scanner; and d) University of Michigan scanner vs. UT Southwestern scanner, treatment arm×time×brain activation, and all model variables in interaction with each of the 4 site variables.

[3] = Moderation of outcome by left amygdala PPI task-related connectivity; type: in vivo, human
Description: Context-dependent connectivity analyses were conducted using the generalized PPI toolbox^1. A “seed” region was defined volumetrically using an anatomical region of interest mask of the left and right amygdala. Each amygdala mask was then deformed from Montereal Neurological Institute standard space into the participant's native anatomical space using the inverse warp parameter determined during spatial normalization of the preprocessing stage. […] The interaction of the time series of behavioral parameters of interest, i.e. the task conditions utilized in the first-level activation analysis, with the deconcolved “neuronal” time series were calculated for each task condition of interest, thus producing a fully specified statistical model modeling the interaction of each task condition with the observed BOLD time series (a psychophysiological interaction). […] The first-level beta weights for the contrasts of conditions of interest were then calculated on the individual level, and individual-level generalized PPI beta maps were then carried to a second level linear mixed model analysis conducted in R using the fmri^2 and nlme^3 packages to assess voxelwise task-dependent connectivity moderation effects (as in the activation analyses).

**Q.** Which “endpoint symptom reduction with sertraline versus placebo, Cohen's d” value ([1]; HAMD17, linear mixed model, 8 weeks) does the source give for CN[C@H]1CC[C@@H](c2ccc(Cl)c(Cl)c2)c2ccccc21 [sertraline] here?
**A.** 0.24

**Q.** What about the “remission number needed to treat (NNT)” value ([1]; sertraline versus placebo) of the same compound?
**A.** 20.1

**Q.** And the “endpoint symptom difference Cohen's d” value ([2]; anterior insula)?
**A.** 0.53

**Q.** And the “remission NNT” value ([2]; anterior insula)?
**A.** 6.3

**Q.** And the “endpoint symptom difference Cohen's d” value ([2]; dorsal anterior cingulate)?
**A.** 0.79

**Q.** What about the “remission NNT” value ([2]; dorsal anterior cingulate) of the same compound?
**A.** 3

**Q.** And the “endpoint symptom difference Cohen's d” value ([2]; frontopolar cortex)?
**A.** 0.85

**Q.** And the “remission NNT” value ([2]; frontopolar cortex)?
**A.** 2.9

**Q.** And the “benefit of sertraline over placebo” value ([2]; patients in bottom half of emotion-regulation capacity)?
**A.** no benefit

**Q.** What about the “benefit of sertraline over placebo” value ([2]; patients in bottom quartile of emotional conflict regulatory ability) of the same compound?
**A.** no benefit

**Q.** And the “number needed to treat” value ([2]; patients in top half of emotion-regulation capacity)?
**A.** < 5

**Q.** And the “number needed to treat versus placebo” value ([2]; patients in top quartile of emotional conflict regulatory ability)?
**A.** < 4

**Q.** And the “symptom change with sertraline versus placebo” value ([3]; left amygdala PPI connectivity to dorsal anterior cingulate above median)?
**A.** failed to show any difference

**Q.** What about the “symptom change with sertraline compared to placebo” value ([3]; left amygdala PPI connectivity to dorsal anterior cingulate below median) of the same compound?
**A.** steep decline in symptoms
